Experimental data from US11920139B2, “Regulated expression of antigen and/or regulated attenuation to enhance vaccine immunogenicity and/or safety” (priority 2007, dated 2024).

Experiments:
[1] = system: Salmonella Typhi strain χ9633(pYA4088); assay: Minimum inhibitory concentrations of antibiotics; assay type: cell-based; conditions: for MIC: Salmonella enterica, TYPHI, read-out: Minimum inhibitory concentration
Description: (§1) Master seed and working seed banks of each vaccine organism in separate vials have been prepared for frozen storage in vegetable-based cryopreservative. […] Antibiotic sensitivity testing has confirmed that these strains are sensitive to ciprofloxacin, ampicillin, ceftriaxone, trimethoprim/sulfamethoxazole (Table 15). Ampicillin, ciprofloxacin, ceftriaxone and trimethoprim/sulfamethoxazole are typically tested for minimum inhibitory concentrations (MICs) for Salmonella.

[2] = system: Salmonella Typhi strain χ9639(pYA4088); assay: microbe, parasite or virus in culture; assay type: cell-based; conditions: for MIC: Salmonella enterica, TYPHI, read-out: Minimum inhibitory concentration
Description: (§2) Master seed and working seed banks of each vaccine organism in separate vials have been prepared for frozen storage in vegetable-based cryopreservative. […] Ampicillin, ciprofloxacin, ceftriaxone and trimethoprim/sulfamethoxazole are typically tested for minimum inhibitory concentrations (MICs) for Salmonella.

[3] = system: Salmonella Typhi strain χ9640(pYA4088); assay: microbe, parasite or virus in culture; assay type: cell-based; conditions: for MIC: Salmonella enterica, TYPHI, read-out: Minimum inhibitory concentration
Description: as §2

[4] = system: the three vaccine strains (RASV-Sp); assay: Antibiotic sensitivity testing of the vaccine strains; assay type: cell-based, Salmonella Typhi
Description: as §1

Row | Compound | MIC [1] [µg/mL] | MIC [2] [µg/mL] | MIC [3] [µg/mL] | antibiotic sensitivity [4] | Minimum inhibitory concentration [1] [µg/mL] | Minimum inhibitory concentration [2] [µg/mL] | Minimum inhibitory concentration [3] [µg/mL]
1 | CC1(C)S[C@@H]2[C@H](NC(=O)[C@H](N)c3ccccc3)C(=O)N2[C@H]1C(=O)O [ampicillin] | < 2 | < 2 | < 2 | sensitive |  |  | 
2 | CO/N=C(\C(=O)N[C@@H]1C(=O)N2C(C(=O)O)=C(CSc3nc(=O)c(=O)[nH]n3C)CS[C@H]12)c1csc(N)n1 [ceftriaxone] | < 0.25 | < 1 | < 1 | sensitive |  |  | 
3 | O=C(O)c1cn(C2CC2)c2cc(N3CCNCC3)c(F)cc2c1=O [ciprofloxacin] | < 0.25 | < 0.25 | < 0.25 | sensitive |  |  | 
4 | trimethroprim-sulfamethoxazole |  |  |  | sensitive | <20 | <20 | <20
